Where “and” joins values, the source holds several entries; their conditions need not be identical. Equal values may be shown once. Read-outs that look alike come from different tables or passages of the source.
Assay: Terminal plasma and brain concentrations in AC-MES studies (UHPLC-MS/MS)
Format: in vivo, mouse
Settings: for concentration at 0.5 h / Kp at 0.5 h / concentration at 30 min / Kp at 30 min: CF-1, mouse, in vivo
Procedure: Sample Collection and Preparation: Mice were anesthetized by isoflurane inhalation (according to SOP TECH-018) until they reached a surgical plane of anesthesia. Then a syringe (1 mL syringe with a 22 gauge needle) was inserted under the sternum into the heart (according to SOP TECH-031). Approximately 0.5 mL of blood was collected, deposited into a K2EDTA tube, and stored on ice. Animals were then euthanized by cervical dislocation. Brains were removed, placed into a pre-weighed vial, and snap frozen on dry ice. At the end of the sample collection, blood was centrifuged at 4000 rpm for 10 minutes at 4° C., and the plasma pipetted into a labeled tube. All samples were stored in a −80° C. freezer until the time of bioanalysis.
Plasma Samples: Extraction of plasma samples was carried out by protein precipitation using acetonitrile. Diluted plasma samples (50 μL) were mixed with 50 μL of internal standard (IS) solution in 1:1 acetonitrile:water (v:v) followed by addition of 200 μL of acetonitrile. Samples were vortexed for 30 seconds, centrifuged at 13,000 rpm for 20 minutes, decanted into a 96-well plate and further centrifuged at 4000 rpm for 20 minutes. The samples were analyzed by ultra-high performance liquid chromatography electrospray ionization tandem mass spectrometry (UHPLC-ESI-MS/MS) as described in the bioanalysis procedure below.
Brain Samples: Prior to extraction, pre-weighed whole brains were homogenized in 1:1 acetonitrile:water (v:v) (2 mL per mouse brain) using an IKA T18 Ultra-Turrax Homogenizer at the setting of 4 for approximately 1 minute. The homogenate was centrifuged at 13,000 rpm for 20 minutes and 50 μL of the supernatant were treated exactly as described in above for plasma samples.
Bioanalysis Procedures: All samples, including plasma and brain homogenate extracts (including calibration standards and quality control (QC) samples prepared in K2EDTA mouse plasma), were extracted by protein precipitation. To each 50 μL aliquot of sample, 50 μL of IS solution (2500 ng/mL of Lacosamide in water:acetonitrile (1:1)) and 50 μL of 6% (v:v) phosphoric acid in water were added, then 200 μL acetonitrile was added. The samples in 1.7 mL tubes were vortex-mixed then centrifuged for 20 minutes at 13,000 rpm. Fifty microliters of the supernatant was mixed with 150 μL of water:acetonitrile (1:1) in a 96 well plate, which was centrifuged post-mixing for 20 minutes at 4000 rpm. The samples were then ready for UHPLC-MS/MS analysis.
Samples were analyzed for Compound A by a research-grade UHPLC-MS/MS method using the conditions listed below.
Samples were analyzed for Lacosamide by a research-grade UHPLC-MS/MS method using the conditions listed below.
At least three QC samples, one at each concentration, had to show back-calculated values within ±20% of their nominal concentrations for the whole sample batch to be valid.
The Blinding and Randomization, Clinical Observations, AC-MES Assay, Sample Collection and Preparation, Plasma and Brain Samples Analysis, and Bioanalysis Procedures in Example 4 were identical to those used in Example 2.
Sample concentration determination and Data Processing and Analysis in Example 4 was identical to Example 2.

[1] = Study 2C, analyte Compound A, 3 mg/kg PO 0.5 h + Lacosamide 10 mg/kg PO 2 h
[2] = Study 4F, Compound A 2 mg/kg PO (0.5 h) in combination with Cenobamate 5 mg/kg PO (2 h)
[3] = Study 4G, Compound A 0.5 mg/kg PO (0.5 h) in combination with Cenobamate 5 mg/kg PO (2 h)
[4] = Study 4G, Compound A 1 mg/kg PO (0.5 h) in combination with Cenobamate 5 mg/kg PO (2 h)

Compound: Cc1cc(N2CCc3cc(F)ccc3C2)cc(C)c1NC(=O)CC(C)(C)C [Compound A, N-[4-(6-fluoro-3,4-dihydro-1H-isoquinolin-2-yl)-2,6-dimethylphenyl]-3,3-dimethylbutanamide]
- concentration at 0.5 h (2 mg/kg, Study 4F, Compound A 2 mg/kg PO alone, 0.5 h pre-treatment, CF-1 mice, read-out: Mean Brain): 250 nM
- concentration at 0.5 h (2 mg/kg, Study 4F, Compound A 2 mg/kg PO alone, 0.5 h pre-treatment, CF-1 mice, read-out: Mean Plasma): 110 nM
- concentration at 0.5 h (Study 2C, analyte Compound A, 3 mg/kg PO 0.5 h + Lacosamide 10 mg/kg PO 2 h, read-out: Mean Plasma): 279 nM
- concentration at 0.5 h (Study 4F, analyte Compound A, 2 mg/kg in combination with Cenobamate 5 mg/kg, read-out: mean plasma concentration): 290 nM
- concentration at 0.5 h (Study 4G, analyte Compound A, 0.5 mg/kg in combination with Cenobamate 5 mg/kg, read-out: mean total plasma concentration): 30 nM
- concentration at 0.5 h (Study 4G, analyte Compound A, 1 mg/kg in combination with Cenobamate 5 mg/kg, read-out: mean total plasma concentration): 110 nM
- concentration at 0.5 h (po, 2 mg/kg, Study 4F, Compound A 2 mg/kg PO, 0.5 h, alone, read-out: mean plasma concentration): 110 nM
- Kp at 0.5 h (po, 2 mg/kg, Study 4F, Compound A 2 mg/kg PO alone, read-out: B/P Ratio (brain to plasma ratio)): 2.32
- concentration at 2 h (Study 2A, Compound A 1 mg/kg PO, 0.5 h, 1 mg/kg, read-out: Mean Plasma): 80 nM
- concentration at 2 h (Study 2A, Compound A 5 mg/kg PO, 0.5 h, 5 mg/kg, read-out: Mean Plasma): 280 nM
- concentration at 2 h (Study 2A, Compound A 10 mg/kg PO, 0.5 h, 10 mg/kg, read-out: Mean Plasma): 370 nM
- concentration at 2 h (Study 2B, Compound A 10 mg/kg PO, 0.5 h, 10 mg/kg, read-out: Mean Plasma): 550 nM
- concentration at 2 h (Study 2C, Compound A 3 mg/kg PO, 0.5 h, alone, 3 mg/kg, read-out: Mean Plasma): 280 nM and 283 nM
- B/P Ratio [1]: 1.95 +
- Mean Brain [1]: 0.54 + μM
- Mean Plasma [1]: 0.28 + μM
- concentration at 2 h (Study 4B, Compound A 5 mg/kg PO, 0.5 h, 5 mg/kg, read-out: mean plasma concentration): 470 nM
- Mean Brain, Compound A [2]: 0.67 µM
- Mean Plasma, Compound A [2]: 0.29 µM
- B/P Ratio, Compound A (Study 4F, Compound A 2 mg/kg PO in combination with Cenobamate 5 mg/kg PO): 2.34
- Mean Brain, Compound A [3]: 0.09 µM
- Mean Plasma, Compound A [3]: 0.03 µM
- B/P Ratio, Compound A (Study 4G, Compound A 0.5 mg/kg PO in combination with Cenobamate 5 mg/kg PO): 3.22
- Mean Brain, Compound A [4]: 0.30 µM
- Mean Plasma, Compound A [4]: 0.11 µM
- B/P Ratio, Compound A (Study 4G, Compound A 1 mg/kg PO in combination with Cenobamate 5 mg/kg PO): 2.76
- concentration at 30 min (male, 1 mg/kg, Study 4A, Compound A 1 mg/kg single oral dose, 30 min pre-treatment, CF-1 mice, read-out: Brain): 150 nM
- concentration at 30 min (male, 1 mg/kg, Study 4A, Compound A 1 mg/kg single oral dose, 30 min pre-treatment, CF-1 mice, read-out: Plasma): 80 nM
- concentration at 30 min (male, 5 mg/kg, Study 4A, Compound A 5 mg/kg single oral dose, 30 min pre-treatment, CF-1 mice, read-out: Brain): 400 nM
- concentration at 30 min (male, 5 mg/kg, Study 4A, Compound A 5 mg/kg single oral dose, 30 min pre-treatment, CF-1 mice, read-out: Plasma): 280 nM
- concentration at 30 min (male, 10 mg/kg, Study 4A, Compound A 10 mg/kg single oral dose, 30 min pre-treatment, CF-1 mice, read-out: Brain): 500 nM
- concentration at 30 min (male, 10 mg/kg, Study 4A, Compound A 10 mg/kg single oral dose, 30 min pre-treatment, CF-1 mice, read-out: Plasma): 370 nM
- Kp at 0.5 h (male, po, 1 mg/kg, Study 2A, Compound A 1 mg/kg PO, 0.5 h, read-out: B/P Ratio): 1.85
- concentration at 0.5 h (male, po, 1 mg/kg, Study 2A, Compound A 1 mg/kg PO, 0.5 h, read-out: Mean Brain): 150 nM
- concentration at 0.5 h (male, po, 1 mg/kg, Study 2A, Compound A 1 mg/kg PO, 0.5 h, read-out: Mean Plasma): 81.5 nM
- concentration at 0.5 h (male, po, 1 mg/kg, Study 4A, Compound A 1 mg/kg PO, 0.5 h, read-out: mean plasma concentration): 80 nM
- Kp at 30 min (male, po, 1 mg/kg, Study 4A, Compound A 1 mg/kg single oral dose, read-out: B/P Ratio (brain to plasma ratio)): 1.85
- Kp at 0.5 h (male, po, 3 mg/kg, Study 2C, Compound A 3 mg/kg PO, 0.5 h, alone, read-out: B/P Ratio): 1.79
- concentration at 0.5 h (male, po, 3 mg/kg, Study 2C, Compound A 3 mg/kg PO, 0.5 h, alone, read-out: Mean Brain): 510 nM
- concentration at 0.5 h (male, po, 3 mg/kg, Study 2C, Compound A 3 mg/kg PO, 0.5 h, alone, read-out: Mean Plasma): 284 nM
- concentration at 0.5 h (male, po, 3 mg/kg, Study 4C, Compound A 3 mg/kg PO, 0.5 h, read-out: plasma concentration): 280 nM
- concentration at 30 min (male, po, 3 mg/kg, Study 4C, Compound A 3 mg/kg single oral dose, CF-1 mice, read-out: Mean Brain): 510 nM
- concentration at 30 min (male, po, 3 mg/kg, Study 4C, Compound A 3 mg/kg single oral dose, CF-1 mice, read-out: Mean Plasma): 280 nM
- Kp at 30 min (male, po, 3 mg/kg, Study 4C, Compound A 3 mg/kg single oral dose, read-out: B/P Ratio (brain to plasma ratio)): 1.79
- Kp at 0.5 h (male, po, 5 mg/kg, Study 2A, Compound A 5 mg/kg PO, 0.5 h, read-out: B/P Ratio): 1.45
- concentration at 0.5 h (male, po, 5 mg/kg, Study 2A, Compound A 5 mg/kg PO, 0.5 h, read-out: Mean Brain): 400 nM
- concentration at 0.5 h (male, po, 5 mg/kg, Study 2A, Compound A 5 mg/kg PO, 0.5 h, read-out: Mean Plasma): 276 nM
- Kp at 0.5 h (male, po, 5 mg/kg, Study 2B, Compound A 5 mg/kg PO, 0.5 h, read-out: B/P Ratio): 1.51
- concentration at 0.5 h (male, po, 5 mg/kg, Study 2B, Compound A 5 mg/kg PO, 0.5 h, read-out: Mean Brain): 710 nM
- concentration at 0.5 h (male, po, 5 mg/kg, Study 4A, Compound A 5 mg/kg PO, 0.5 h, read-out: mean plasma concentration): 280 nM
- Kp at 30 min (male, po, 5 mg/kg, Study 4A, Compound A 5 mg/kg single oral dose, read-out: B/P Ratio (brain to plasma ratio)): 1.45
- concentration at 0.5 h (male, po, 5 mg/kg, Study 4B, Compound A 5 mg/kg PO, 0.5 h, read-out: mean plasma concentration): 470 nM
- concentration at 30 min (male, po, 5 mg/kg, Study 4B, Compound A 5 mg/kg single oral dose, CF-1 mice, read-out: Mean Brain): 710 nM
- concentration at 30 min (male, po, 5 mg/kg, Study 4B, Compound A 5 mg/kg single oral dose, CF-1 mice, read-out: Mean Plasma): 1000 nM
- Kp at 30 min (male, po, 5 mg/kg, Study 4B, Compound A 5 mg/kg single oral dose, read-out: B/P Ratio (brain to plasma ratio)): 1.51
- Kp at 0.5 h (male, po, 7.5 mg/kg, Study 2B, Compound A 7.5 mg/kg PO, 0.5 h, read-out: B/P Ratio): 1.64
- concentration at 0.5 h (male, po, 7.5 mg/kg, Study 2B, Compound A 7.5 mg/kg PO, 0.5 h, read-out: Mean Brain): 870 nM
- concentration at 0.5 h (male, po, 7.5 mg/kg, Study 2B, Compound A 7.5 mg/kg PO, 0.5 h, read-out: Mean Plasma): 530 nM
- concentration at 30 min (male, po, 7.5 mg/kg, Study 4B, Compound A 7.5 mg/kg single oral dose, CF-1 mice, read-out: Mean Brain): 870 nM
- concentration at 30 min (male, po, 7.5 mg/kg, Study 4B, Compound A 7.5 mg/kg single oral dose, CF-1 mice, read-out: Mean Plasma): 530 nM
- Kp at 30 min (male, po, 7.5 mg/kg, Study 4B, Compound A 7.5 mg/kg single oral dose, read-out: B/P Ratio (brain to plasma ratio)): 1.64
- Kp at 0.5 h (male, po, 10 mg/kg, Study 2A, Compound A 10 mg/kg PO, 0.5 h, read-out: B/P Ratio): 1.36
- concentration at 0.5 h (male, po, 10 mg/kg, Study 2A, Compound A 10 mg/kg PO, 0.5 h, read-out: Mean Brain): 500 nM
- concentration at 0.5 h (male, po, 10 mg/kg, Study 2A, Compound A 10 mg/kg PO, 0.5 h, read-out: Mean Plasma): 366 nM
- Kp at 0.5 h (male, po, 10 mg/kg, Study 2B, Compound A 10 mg/kg PO, 0.5 h, read-out: B/P Ratio): 1.64
- concentration at 0.5 h (male, po, 10 mg/kg, Study 2B, Compound A 10 mg/kg PO, 0.5 h, read-out: Mean Brain): 910 nM
- concentration at 0.5 h (male, po, 10 mg/kg, Study 2B, Compound A 10 mg/kg PO, 0.5 h, read-out: Mean Plasma): 553 nM
- concentration at 0.5 h (male, po, 10 mg/kg, Study 4A, Compound A 10 mg/kg PO, 0.5 h, read-out: mean plasma concentration): 370 nM
- Kp at 30 min (male, po, 10 mg/kg, Study 4A, Compound A 10 mg/kg single oral dose, read-out: B/P Ratio (brain to plasma ratio)): 1.36
- concentration at 0.5 h (male, po, 10 mg/kg, Study 4B, Compound A 10 mg/kg PO, 0.5 h, read-out: mean plasma concentration): 550 nM
- concentration at 30 min (male, po, 10 mg/kg, Study 4B, Compound A 10 mg/kg single oral dose, CF-1 mice, read-out: Mean Brain): 910 nM
- concentration at 30 min (male, po, 10 mg/kg, Study 4B, Compound A 10 mg/kg single oral dose, CF-1 mice, read-out: Mean Plasma): 550 nM
- Kp at 30 min (male, po, 10 mg/kg, Study 4B, Compound A 10 mg/kg single oral dose, read-out: B/P Ratio (brain to plasma ratio)): 1.64

— US20220288057A1, “CONJOINT THERAPY FOR TREATING SEIZURE DISORDERS” (XENON PHARMACEUTICALS INC., priority 2021, published 2022)
